According to US9988348B1, “Synthesis and antimicrobial use of a trithiocarbonate derivative” (KING SAUD UNIVERSITY, priority 2017, dated 2018):
Marks after values point to notes of the source that are not given here.

Legend:
[1] = biological effects of compound 4 alone in mice (not infected);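 for daily body weight: compound given twice daily to the uninfected group for 2 weeks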; format: in vivo; parameters: Total Protein Mean ± SE: unit not given here; settings: for daily body weight / % change in daily body weight / Food consumption / Mortality / Water consumption: i.v. 12 mg/kg then 6 mg/ml
Description: The experiment was performed in Experimental Animal Care Center (EACC), College of Pharmacy, King Saud University, Riyadh. Fifty Albino male mice, weighing nearly 30±2 gram were used. The mice were arranged in five groups, each including ten mice caged together, given water, and feed ad libitum. […] The group treated with standard drug (fluconazole) was infected intravenously with 0.2 ml of C. albicans suspension (10^6 CFU/mouse) and treated (orally) by 12 mg/kg of fluconazole (loading dose) on the first day followed by 6 mg/ml for 2 weeks.
The biological parameters included daily body weight (gm), mortality (%), food consumption (g/day/mouse), water consumption (ml/day/mouse), serum glutamic oxaloacetic transaminase [SGOT(AST) (U/L)], serum glutamic-pyruvic transaminase [SGPT(ALT)(U/L)], alkaline phosphatase (U/L), gamma-glutamyl transferase (GGT) (U/L), bilirubin (mg/dl)], cholesterol (mg/dl), triglycerides (mg/dl), high-density lipoprotein (HDL) (mg/dl), very-low-density lipoprotein (VLDL) (mg/dl), low-density lipoprotein (LDL) (mg/dl), lactate dehydrogenase (LDH) (U/L), glucose (mg/dl), total protein (mg/dl), malondialdehyde (MDA) (nmol/g), nonprotein sulfyhydryl (NP-SH) (nmol/g). […] SGOT (AST), SGPT (ALT), ALP, GGT, bilirubin LDH and total protein were estimated using Reflotron Plus Analyzer and Roche kits (Roche Diagnostics GmbH, Mannheim Germany) and United diagnostic kits assay. Hematological tests were performed by Mindray BC-2800VET auto Hematology Analyzer.

[2] = test system: MCF-7 human breast cancer cell lines; assay: in vitro anti-cancer test; format: cell-based; settings: water soluble form, 4 to 0.008 mg/mL
Description: Biological activity of compound 4 (water soluble form) as anticancer in human breast cancer was evaluated according to (Kumar et al. 2014). Roswell Park Memorial Institute (RPMI)-1640 medium (Sigma, USA) were prepared according to manufacturer's guidelines and supplemented fetal bovine serum (10%). To avoid a microbial contamination, a streptomycin and penicillin were added to RPMI-1640. Several concentrations ranging from 4 to 0.008 mg/mL of compound 4 were tested.

[3] = blood, uninfected mice, i.v. 12 mg/kg then 6 mg/ml for 2 weeks
[4] = liver tissue, uninfected mice, i.v. 12 mg/kg then 6 mg/ml for 2 weeks
[5] = serum, uninfected mice, i.v. 12 mg/kg then 6 mg/ml for 2 weeks

CCOC(=O)CSC(=S)SCC(=O)OCC [Compound 4, diethyl 2,2′-(thiocarbonylbis(sulfanediyl))diacetate]
Eosinophils Mean ± SE [1, 3]: 2.38 ± 0.09% | HCT Mean ± SE [1, 3]: 45.9 ± 1.51^a | HGB Mean ± SE [1, 3]: 12.4 ± 0.18^a g/dL | Lymphocytes Mean ± SE [1, 3]: 4.8 ± 0.09% | MCH Mean ± SE [1, 3]: 39.0 ± 1.0 pg | MCHC Mean ± SE [1, 3]: 32.6 ± 0.9 g/dL | MCV Mean ± SE [1, 3]: 87.31 ± 1.74 fL | Monocytes Mean ± SE [1, 3]: 1.15 ± 0.01% | Neutrophils Mean ± SE [1, 3]: 33.3 ± 1.1% | PLT Mean ± SE [1, 3]: 670.7 ± 15.3 10^3/mm^3 | RBC Mean ± SE [1, 3]: 9.26 ± 0.1 10^6/mm^3 | WBC Mean ± SE [1, 3]: 8795 ± 45.9 Cell/mm^3 | MDA [1, 4]: 0.94 ± 0.03***^a nmol/g | NP-SH [1, 4]: 6.88 ± 0.22***^a nmol/g | Total Protein [1, 4]: 129.04 ± 2.80**^a g/l | side effects on food and water consumption comparing with control group ([1]; mice): no negative side effects | Alkaline phosphatase Mean ± SE ([1]; serum, uninfected mice, 12 mg/kg then 6 mg/ml for 2 weeks): 286.62 ± 4.67^a U/L | Bilirubin Mean ± SE [1, 5]: 0.57 ± 0.017^a mg/dl | Cholesterol Mean ± SE [1, 5]: 78.68 ± 3.2 mg/dL | GGT Mean ± SE [1, 5]: 4.40 ± 0.13^a U/L | Glucose level Mean ± SE [1, 5]: 96.38 ± 3.62**^a mg/dl | HDL Mean ± SE [1, 5]: 41.6 ± 2.1^a mg/dl | LDH Mean ± SE [1, 5]: 162.50 ± 1.84^a U/L | LDL Mean ± SE [1, 5]: 23.3 ± 3.0 mg/dL | SGOT(AST) Mean ± SE [1, 5]: 89.07 ± 3.82 U/L | SGPT(ALT) Mean ± SE [1, 5]: 28.67 ± 1.15^a U/L | Total Protein Mean ± SE [1, 5]: 7.66 ± 0.18 | Triglycerides Mean ± SE [1, 5]: 68.5 ± 1.6 mg/dL | VLDL Mean ± SE [1, 5]: 13.7 ± 0.3 mg/dL | mortality in the group treated only with the compound, in words ([1]; uninfected mice): close to the control group | daily body weight ([1]; uninfected mice, day 0): 20.20 ± 0.38 gm | % change in daily body weight ([1]; uninfected mice, day 1): 0.49% | Food consumption ([1]; uninfected mice, day 1): 4.2 g/day/mice | Mortality ([1]; uninfected mice, day 1): 0% | Water consumption ([1]; uninfected mice, day 1): 5.2 g/day/mice | daily body weight ([1]; uninfected mice, day 1): 20.30 ± 0.36 gm | % change in daily body weight ([1]; uninfected mice, day 2): 9.40% | Food consumption ([1]; uninfected mice, day 2): 4.5 g/day/mice | Mortality ([1]; uninfected mice, day 2): 0% | Water consumption ([1]; uninfected mice, day 2): 5.2 g/day/mice | daily body weight ([1]; uninfected mice, day 2): 22.10 ± 0.23 gm | % change in daily body weight ([1]; uninfected mice, day 3): 16.83% | Food consumption ([1]; uninfected mice, day 3): 4.4 g/day/mice | Mortality ([1]; uninfected mice, day 3): 0% | Water consumption ([1]; uninfected mice, day 3): 5.4 g/day/mice | daily body weight ([1]; uninfected mice, day 3): 23.60 ± 0.33 gm | % change in daily body weight ([1]; uninfected mice, day 4): 19.80% | Food consumption ([1]; uninfected mice, day 4): 4.5 g/day/mice | Mortality ([1]; uninfected mice, day 4): 0% | Water consumption ([1]; uninfected mice, day 4): 5.5 g/day/mice | daily body weight ([1]; uninfected mice, day 4): 24.20 ± 0.20 gm | % change in daily body weight ([1]; uninfected mice, day 5): 23.26% | Food consumption ([1]; uninfected mice, day 5): 4.6 g/day/mice | Mortality ([1]; uninfected mice, day 5): 0% | Water consumption ([1]; uninfected mice, day 5): 5.5 g/day/mice | daily body weight ([1]; uninfected mice, day 5): 24.90 ± 0.23 gm | % change in daily body weight ([1]; uninfected mice, day 6): 27.22% | Food consumption ([1]; uninfected mice, day 6): 4.6 g/day/mice | Mortality ([1]; uninfected mice, day 6): 0% | Water consumption ([1]; uninfected mice, day 6): 5.7 g/day/mice | daily body weight ([1]; uninfected mice, day 6): 25.70 ± 0.21 gm | % change in daily body weight ([1]; uninfected mice, day 7): 29.70% | Food consumption ([1]; uninfected mice, day 7): 4.8 g/day/mice | Mortality ([1]; uninfected mice, day 7): 0% | Water consumption ([1]; uninfected mice, day 7): 5.8 g/day/mice | daily body weight ([1]; uninfected mice, day 7): 26.20 ± 0.24 gm | % change in daily body weight ([1]; uninfected mice, day 8): 32.17% | Food consumption ([1]; uninfected mice, day 8): 4.9 g/day/mice | Mortality ([1]; uninfected mice, day 8): 0% | Water consumption ([1]; uninfected mice, day 8): 5.8 g/day/mice | daily body weight ([1]; uninfected mice, day 8): 26.70 ± 0.26 gm | % change in daily body weight ([1]; uninfected mice, day 9): 32.67% | Food consumption ([1]; uninfected mice, day 9): 4.9 g/day/mice | Mortality ([1]; uninfected mice, day 9): 0% | Water consumption ([1]; uninfected mice, day 9): 5.9 g/day/mice | daily body weight ([1]; uninfected mice, day 9): 26.80 ± 0.29 gm | % change in daily body weight ([1]; uninfected mice, day 10): 33.66% | Food consumption ([1]; uninfected mice, day 10): 5.1 g/day/mice | Mortality ([1]; uninfected mice, day 10): 0% | Water consumption ([1]; uninfected mice, day 10): 5.9 g/day/mice | daily body weight ([1]; uninfected mice, day 10): 27.00 ± 0.27 gm | % change in daily body weight ([1]; uninfected mice, day 11): 35.64% | Food consumption ([1]; uninfected mice, day 11): 5.2 g/day/mice | Mortality ([1]; uninfected mice, day 11): 0% | Water consumption ([1]; uninfected mice, day 11): 6.0 g/day/mice | daily body weight ([1]; uninfected mice, day 11): 27.40 ± 0.35 gm | % change in daily body weight ([1]; uninfected mice, day 12): 36.96% | Food consumption ([1]; uninfected mice, day 12): 6.0 g/day/mice | Mortality ([1]; uninfected mice, day 12): 0% | Water consumption ([1]; uninfected mice, day 12): 6.11 g/day/mice | daily body weight ([1]; uninfected mice, day 12): 27.66 ± 0.28 gm | % change in daily body weight ([1]; uninfected mice, day 13): 35.51% | Food consumption ([1]; uninfected mice, day 13): 6.0 g/day/mice | Mortality ([1]; uninfected mice, day 13): 10% | Water consumption ([1]; uninfected mice, day 13): 6.2 g/day/mice | daily body weight ([1]; uninfected mice, day 13): 27.77 ± 0.27 gm | % change in daily body weight ([1]; uninfected mice, day 14): 38.61% | Food consumption ([1]; uninfected mice, day 14): 6.1 g/day/mice | Mortality ([1]; uninfected mice, day 14): 10% | Water consumption ([1]; uninfected mice, day 14): 6.2 g/day/mice | daily body weight ([1]; uninfected mice, day 14): 28.00 ± 0.37 gm | % change in daily body weight ([1]; uninfected mice, day 15): 41.70% | Food consumption ([1]; uninfected mice, day 15): 6.1 g/day/mice | Mortality ([1]; uninfected mice, day 15): 10% | Water consumption ([1]; uninfected mice, day 15): 6.3 g/day/mice | daily body weight ([1]; uninfected mice, day 15): 28.62 ± 0.41 gm | biological activity as anticancer [2]: no biological activity
